Test results as given in patent publication US20250213735A1, “NEUROPEPTIDE Y1 RECEPTOR (NPY1R) TARGETED THERAPEUTICS AND USES THEREOF” (Radionetics Oncology, Inc., priority 2023, published 2025).

Target: hNPY1R (Homo sapiens (Human), UniProt P25929)
Assay: NPY1R binding assay (SK-N-MC membrane, [125I]-Peptide YY competition);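 note: bound radioligand separated by filtration over GF/C filter plates and counted, Ki obtained by non-linear regression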
Conditions: not given

Sequence of hNPY1R (P25929 whole entry): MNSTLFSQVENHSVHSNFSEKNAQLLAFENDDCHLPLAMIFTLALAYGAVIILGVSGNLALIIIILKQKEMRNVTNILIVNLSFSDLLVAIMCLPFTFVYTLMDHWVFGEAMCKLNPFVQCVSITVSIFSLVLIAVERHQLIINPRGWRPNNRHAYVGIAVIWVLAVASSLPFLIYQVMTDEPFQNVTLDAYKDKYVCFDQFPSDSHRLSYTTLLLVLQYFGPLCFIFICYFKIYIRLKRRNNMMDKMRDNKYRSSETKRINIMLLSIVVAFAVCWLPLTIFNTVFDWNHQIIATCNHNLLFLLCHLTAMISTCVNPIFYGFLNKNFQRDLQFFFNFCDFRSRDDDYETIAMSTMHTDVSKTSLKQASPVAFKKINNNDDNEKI

| SMILES | Ki [nM] |
| --- | --- |
| CCC(=O)NCCNC(=O)/N=C(/N)NCCC[C@@H](NC(=O)[C@H](c1ccc(OCCCNC(=O)CCCCCNC(=O)CN2CCN3CCN4CCN(CC2)CC(=O)[O][Ga]([O]C(=O)C3)[O]C(=O)C4)cc1)N1Cc2ccccc2C1)C(=O)NCc1ccc(O)cc1 [1A-Ga, Gallium (III) 2,2′,2″-(10-(2-((6-((3-(4-((1S,4R,Z)-9-amino-4-((4-hydroxybenzyl)carbamoyl)-1-(isoindolin-2-yl)-2,11,16-trioxo-3,8,10,12,15-pentaazaoctadec-9-en-1-yl)phenoxy)propyl)amino)-6-oxohexyl)amino)-2-oxoethyl)-1,4,7,10-tetraazacyclododecane-1,4,7-triyl)triacetate] | < 10 |

Same assay, conditions: crude SK-N-MC membranes endogenously expressing NPY1R; [125I]-Peptide YY (human) 0.05 nM; 120 min at room temperature; read-out: hNPY1R binding Ki

| Ki [nM] | SMILES |
| --- | --- |
| < 10 | CCC(=O)NCCNC(=O)/N=C(/N)NCCC[C@@H](NC(=O)[C@H](c1ccc(CCCOCCOCCNC(=O)CN2CCN(CC(=O)O)CCN(CC(=O)O)CCN(CC(=O)O)CC2)cc1)N1Cc2ccccc2C1)C(=O)NCc1c(F)cc(O)cc1F (single isomer, unassigned) [8A] |
| 10 to 100 | CCC(=O)NCCNC(=O)/N=C(/N)NCCC[C@@H](NC(=O)[C@@H](c1ccc(CCCOCCOCCNC(=O)CN2CCN(CC(=O)O)CCN(CC(=O)O)CCN(CC(=O)O)CC2)cc1)N1Cc2ccccc2C1)C(=O)NCc1c(F)cc(O)cc1F (single isomer, unassigned) [8B] |
| < 10 | CCC(=O)NCCNC(=O)/N=C(/N)NCCC[C@@H](NC(=O)C(c1cccc(NC(=O)CCCNC(=O)[C@@H](CO)NC(=O)CCNC(=O)CN2CCN(CC(=O)O)CCN(CC(=O)O)CCN(CC(=O)O)CC2)c1)N1Cc2ccccc2C1)C(=O)NCc1c(F)cc(O)cc1F (single isomer, unassigned) [32A] |
| < 10 | CCC(=O)NCCNC(=O)/N=C(/N)NCCC[C@@H](NC(=O)C(c1ccc(OCCCN)cc1)N1Cc2ccccc2C1)C(=O)NCc1c(F)cc(O)cc1F (stereo in doubt) [compound 62, (R)-2-((S)-2-(4-(3-aminopropoxy)phenyl)-2-(isoindolin-2-yl)acetamido)-N-(2,6-difluoro-4-hydroxybenzyl)-5-((Z)-2-((2-propionamidoethyl)carbamoyl)guanidino)pentanamide] |

| SMILES | Ki [nM] |
| --- | --- |
| CCC(=O)NCCNC(=O)/N=C(/N)NCCC[C@@H](NC(=O)[C@H](c1cccc(NC(=O)CCCNc2c(NCCCCCCNC(=O)CN3CCN(CC(=O)O)CCN(CC(=O)O)CCN(CC(=O)O)CC3)c(=O)c2=O)c1)N1Cc2ccccc2C1)C(=O)NCc1c(F)cc(O)cc1F (single isomer, unassigned) [31A] | < 10 |
| CCC(=O)NCCNC(=O)/N=C(/N)NCCC[C@@H](NC(=O)[C@@H](c1cccc(NC(=O)CCCNc2c(NCCCCCCNC(=O)CN3CCN(CC(=O)O)CCN(CC(=O)O)CCN(CC(=O)O)CC3)c(=O)c2=O)c1)N1Cc2ccccc2C1)C(=O)NCc1c(F)cc(O)cc1F (single isomer, unassigned) [31B] | < 10 |
| CCC(=O)NCCNC(=O)/N=C(/N)NCCC[C@@H](NC(=O)[C@H](c1ccc(OCCCNC(=O)CCCCCNC(=O)CN2CCN(CC(=O)O)CCN(CC(=O)O)CCN(CC(=O)O)CC2)cc1)N1Cc2ccccc2C1)C(=O)NCc1ccc(O)cc1 [1A, 2,2′,2″-(10-(2-((6-((3-(4-((1S,4R,Z)-9-amino-4-((4-hydroxybenzyl)carbamoyl)-1-(isoindolin-2-yl)-2,11,16-trioxo-3,8,10,12,15-pentaazaoctadec-9-en-1-yl)phenoxy)propyl)amino)-6-oxohexyl)amino)-2-oxoethyl)-1,4,7,10-tetraazacyclododecane-1,4,7-triyl)triacetic acid] | < 10 |
